Measured values: PMC7789826 (Journal of Molecular Structure, 2021)

Biological target: voltage-gated potassium channel Kv1.3 (Homo sapiens, UniProt P22001)
Assay: whole-cell patch clamp, voltage ramp, endogenous Kv1.[…] current in Jurkat T cells
Type: cell-based

Sequence of voltage-gated potassium channel Kv1.3 (P22001 whole entry): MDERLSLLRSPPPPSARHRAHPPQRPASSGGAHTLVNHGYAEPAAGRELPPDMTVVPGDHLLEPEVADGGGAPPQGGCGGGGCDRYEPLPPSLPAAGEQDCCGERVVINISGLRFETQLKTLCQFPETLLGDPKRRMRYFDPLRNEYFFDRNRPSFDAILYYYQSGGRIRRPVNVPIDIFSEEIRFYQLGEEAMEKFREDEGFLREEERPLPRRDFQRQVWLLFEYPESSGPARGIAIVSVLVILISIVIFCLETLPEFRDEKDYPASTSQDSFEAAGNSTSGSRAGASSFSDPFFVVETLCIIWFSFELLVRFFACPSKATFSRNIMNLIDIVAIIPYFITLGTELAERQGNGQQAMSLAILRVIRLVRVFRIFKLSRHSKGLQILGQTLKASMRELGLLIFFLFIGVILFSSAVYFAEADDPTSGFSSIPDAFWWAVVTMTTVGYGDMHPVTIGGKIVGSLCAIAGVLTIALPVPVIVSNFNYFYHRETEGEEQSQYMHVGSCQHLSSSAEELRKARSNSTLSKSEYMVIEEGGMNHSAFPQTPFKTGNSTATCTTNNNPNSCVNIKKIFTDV

EC50 [µM]	Compound
6.04	CC[C@H](C)C(=O)O[C@H]1CCC=C2C=C[C@H](C)[C@H](CC[C@@H]3C[C@@H](O)CC(=O)O3)[C@H]21 [mevastatin]
4.85	CCC(C)(C)C(=O)O[C@H]1C[C@@H](C)C=C2C=C[C@H](C)[C@H](CC[C@@H]3C[C@@H](O)CC(=O)O3)[C@H]21 [simvastatin]
